These results are taken from US20110207807A1, “NEW USE FOR HOMOISOFLAVONE OR A SALT THEREOF” (Catholic University Industry Academy Cooperation Foundation, priority 2008, published 2011).

The structures appear in SMILES notation.

One experiment concerns 5-LOX. In words: 5-LOX translocation to nuclear membrane induced by PMA and A23187 in HMC-1 (Western blot). In kind it is cell-based, human. Particulars: HMC-1, 2 μg/mL, 50 nM PMA + 1 μM A23187, 5 hours (FIG. 7b). The procedure: In order to investigate the effect of homoisoflavanone on the migration of 5-LOX from the cytoplasm toward the nuclear membrane induced by phorbol 12-myristate 13-acetate and A23187 in human mast cells, 1×10^6 HMC-1 cells were inoculated on a 100-mm culture dish and cultured in IMDM containing 10% FBS for 48 hours. Then, after treating with homoisoflavanone at 2 μg/mL, the cells were treated with 50 nM phorbol 12-myristate 13-acetate and 1 μM A23187 to induce migration of 5-LOX to the nuclear membrane, and then further cultured for 5 hours.
Then, in order to measure the migration of 5-LOX to the nuclear membrane, nuclear membrane proteins were isolated first. The cells of each test group were lysed with a buffer containing 10 mM HEPES/KOH, 0.1 mM EDTA, 10% NP-40, 10 mM KCl, 1 mM DTT, 0.5 mM PMSF and a protease inhibitor cocktail on ice for 10 minutes. After centrifugation, the supernatant (cytoplasmic proteins) was separated from the pellets (nuclear membrane proteins). The cytoplasmic proteins were kept at −80° C. and the pellets were lysed with a buffer containing 10 mM HEPES/KOH, 0.1 mM EDTA, 10% NP-40, 300 mM NaCl, 1 mM DTT, 0.5 mM PMSF and a protease inhibitor cocktail by shaking on ice for 30 minutes. Then, after centrifugation, the supernatant (nuclear proteins) was separated. […]

Experiment [1] has as its system IL-8. The experiment in a line: IL-8 mRNA expression induced by PMA and A23187 in HMC-1 (real-time PCR). Format: cell-based, human. As to conditions: HMC-1, 2 μg/mL, 50 nM PMA + 1 μM A23187, 5 hours (FIG. 6d). Here is the method: In order to investigate the effect of homoisoflavanone on the release of pro-inflammatory cytokines induced by phorbol 12-myristate 13-acetate and A23187 in HMC-1, 5×10^5 HMC-1 cells were inoculated on a 60-mm culture dish and cultured in IMDM containing 10% FBS for 48 hours. Then, after treating with homoisoflavanone at 2 μg/mL, the cells were treated with 50 nM phorbol 12-myristate 13-acetate and 1 μM A23187 to induce release of pro-inflammatory cytokines, and then further cultured for 5 hours.
After extracting RNA from the cells of each test group using TRIzol, cDNA was prepared by carrying out PCR using the RNA as a template. Then, the mRNA expression of IL-6 and IL-8 was measured through real-time PCR using the cDNA as template and using commercially available IL-6 and IL-8 primers. The expression level of the pro-inflammatory cytokines was compared relative to the non-treated group.
For orientation: In qPCR the cycle at which signal appears reflects the starting amount.

In experiment [2] the test system is IL-8. The experiment in a line: UV-induced IL-8 mRNA expression in HaCaT cells (real-time PCR). Format: cell-based, human. Particulars: 1 μg/mL, UV 100 J/m^2, compared to control group (FIG. 3). Here is the method:
(§1) 1×10^6 HaCaT cells were inoculated on a 100-mm culture dish and cultured in DMEM containing 10% FBS for 24 hour. Then, the cells were starved by culturing for 24 hours in DMEM containing 1% FBS. Then, after treating with homoisoflavanone at 1 μg/mL for 1 hour, the cells were washed 3 times with PBS and irradiated with UV at 100 J/m^2 to induce increase of cytokines. Immediately after the UV radiation, the cells were washed again with PBS and further cultured for 2 or 5 hours in DMEM containing 1% FBS which had been treated with homoisoflavanone at the same concentration.
(§2) After extracting RNA from the cells of each test group using TRIzol (Invitrogen, USA), cDNA was prepared by carrying out PCR (PTC-225 Peltier thermal cycler, MJ Research, USA). Then, the mRNA expression of IL-6, IL-8 and TNF-α was measured through real-time PCR (Roter Gene 6000 series, Corbett Research, Australia) using the cDNA as template and using commercially available IL-6, IL-8 and TNF-α primers. The expression level of the pro-inflammatory cytokines was compared relative to the non-treated group.

The subject of another experiment is HMC-1 cells. The experiment in a line: Histamine release during degranulation of HMC-1 (histamine enzyme assay kit). In kind it is cell-based, human. As to conditions: HMC-1, 2 μg/mL, 50 nM PMA + 1 μM A23187 (FIG. 8b). The procedure:
In order to investigate the effect of homoisoflavanone on COX-2 expression induced by phorbol 12-myristate 13-acetate and A23187 in HMC-1, 1×10^5 HMC-1 cells were inoculated on a 6-well plate and cultured in IMDM containing 10% FBS for 48 hours. Then, after treating with homoisoflavanone at 2 μg/mL for 1 hour, the cells were treated with 50 nM phorbol 12-myristate 13-acetate and 1 μM A23187 to induce COX-2 expression, and then further cultured for 6 hours. Then, the cells were fixed with 2.5% glutaraldehyde and frozen with liquid nitrogen. The cells were detached from the plate by applying heat, sliced into […], attached on grids, and observed with a transmission electron microscope (TEM).
In order to measure histamine released during the degranulation, the cell supernatant was collected and subjected to measurement using a histamine enzyme assay kit (Cayman, USA) according to the manufacturer's instructions. First, the collected supernatant was anti-histamine derivatized and reacted with histamine-AChE tracer. Then, after washing at least 5 times followed by visualization for 60-90 minutes, absorbance was measured at 414 nm.

Another experiment has as its system IL-6. In words: UV-induced IL-6 mRNA expression in HaCaT cells (real-time PCR). Particulars: 1 μg/mL, UV 100 J/m^2, compared to control group (FIG. 3). Format: cell-based, human. Here is the method: as §1, §2
The next experiment has as its system hairless mouse (SKH-1). The experiment in a line: Ear edema induced by phorbol 12-myristate 13-acetate in animal model. In kind it is in vivo. The procedure:
In order to confirm the in vitro test result on the human keratinocytes HaCaT cells in an animal model, experiment was performed as follows using hairless mouse (SKH-1). Test groups are as follows: non-treated group—treated not with phorbol 12-myristate 13-acetate but only with acetone (TPA); test group A—treated with 1 μg/10 μL homoisoflavanone or 50 μg/10 μL dexamethasone; control group (TPA)-treated with 100 μM phorbol 12-myristate 13-acetate; test group B—treated with 1 μg/10 μL homoisoflavanone or 50 μg/10 μL dexamethasone as well as 100 μM phorbol 12-myristate 13-acetate.
One hour before treating with phorbol 12-myristate 13-acetate, 1 μg/10 μL homoisoflavanone or 50 μg/10 μL dexamethasone was applied on the front and rear parts of the ear, 5 μL each. Then, 6 hour after the application of phorbol 12-myristate 13-acetate, ear thickness and weight were measured.
In order to investigate overall change in the skin tissue, hematoxylin-eosin staining was carried out.

The mark [3] stands for this setting: topical 1 μg/10 μL homoisoflavanone or 50 μg/10 μL dexamethasone 1 h before 100 μM TPA, 6 hour after TPA, vs TPA control (FIG. 4a, 4b).

For the compound `COc1ccc(CC2COc3cc(O)cc(O)c3C2=O)cc1O` (centres unmarked) [homoisoflavanone], the “migration of 5-LOX toward the nuclear membrane” value in the experiment on 5-LOX was “inhibited”. In addition, the “inhibition of release (mRNA expression) of IL-8” value with IL-8 [1] is given as 50%. Besides, in the experiment on IL-8 [2], the “expression of IL-8 (mRNA) induced by UV” value is reported as “decreased expression”. Moreover, the “inhibition of release of histamine” value with HMC-1 cells was 72%. For the same compound, the “expression of IL-6 (mRNA) induced by UV” value in the experiment with IL-6 is given as “decreased expression”. In the experiment on hairless mouse (SKH-1) (1 μg/10 μL homoisoflavanone or 50 μg/10 μL dexamethasone plus TPA (FIG. 4c)), the “hyperplasia in the epidermis (hematoxylin-eosin staining)” value is recorded as “significantly reduced”. Moreover, in the experiment with hairless mouse (SKH-1) (setting [3]), the ear thickness entry is listed as “decrease” and the ear weight result was “decrease”.
